US20230102192A1, “THERAPIES FOR THE TREATMENT OF DISEASES AND DISORDERS ASSOCIATED WITH ABNORMAL EXPRESSION OF A NEURAL-ASSOCIATED GENE” (The Regents of the University of California, priority 2020, published 2023)

Key:
Assay type in all cases: cell-based, human
MECP2-KO neurons = assay: Neuronal morphology (neurites, spine density); conditions: vs KO untreated
[1] = system: MECP2-KO cortical organoids; assay: Cortical organoid diameter; conditions: 1 μM for one month, 2-month old organoids
Experimental: Generation of cortical organoids. Cortical organoid generation was performed according to Trujillo et al. (Cell Stem Cell 25:558-569.e7 (2019)). iPSCs cultured 5-7 d were dissociated with 1:1 Accutase (Life Technologies) in PBS, and 4×10^6 cells/well in mTeSR1 supplemented with 10 μM SB (Stemgent), 1 μM Dorso (R&D Systems), and 5 μM Y-27632 (EMD-Millipore, Burlington, Mass., USA) were plated on rotating suspension. […]
Nefiracetam and PHA 543613 rescue network activity in MECP2-KO cortical organoids. The therapeutic efficacy of Nefiracetam and PHA 543613 was evaluated with cortical organoids, a complex, three-dimensional human neurodevelopmental model that closely recapitulates aspects of human fetal neurodevelopment. […]

control neurons = assay: Effect of treatment on control neurons
Experimental: Pharmacologic treatment. One-month old cortical organoids were treated for 1 mo with either Nefiracetam (10 μM) or PHA 543613 (10 μM) during media changes.
Pharmacologic screening identifies two compounds that specifically reverse MECP2-KO phenotypes. 14 commercially available pharmacologic compounds with mechanisms of action that counteract the synapse and neurotransmitter pathologies were selected and which are identified in FIG. 5B. […] MECP2-KO and control neurons were treated with each of the 14 compounds and employed a tiered series of assays to identify those that could selectively rescue MECP2-KO pathology without affecting controls. […] The capacity of these compounds to increase pre and post co-localized synaptic puncta in MECP2-KO neurons were evaluated, again eliminating the drugs that affected control neurons (see FIG. 5F-G, and FIG. 6C-D).

[2] = system: MECP2-mosaic (CTR/KO) neurospheres; assay: Calcium imaging of neurospheres; conditions: for calcium transient amplitude: P=0.255
Experimental: Calcium imaging. Calcium imaging was performed as described in Chailangkarn et al. Briefly, PSC-derived neuronal networks were lentivirally transduced with a Syn::RFP reporter construct. Cultures were washed with Krebs HEPES buffer and incubated with Fluo-4AM (Molecular Probes/Invitrogen, Carlsbad, Calif., USA). A Hamamatsu ORCA-ER digital camera (Hamamatsu Photonics, Japan) with 488 nm filter on an Olympus IX81 inverted fluorescence confocal microscope (Olympus Optical, Tokyo, Japan) acquired 5000 frames at 28 Hz in a 256×256 pixel region (100× magnification). Images were acquired with MetaMorph7.7 (MDS Analytical Technologies, Sunnyvale, Calif., USA) and analyzed with ImageJ and Matlab7.2 (Mathworks, Natick, Mass., USA). Syn::RFP+ neurons were selected following tetrodotoxin blockade of calcium transients. A 95th-percentile threshold of amplitude for calcium spikes was set for event detection; signal amplitude is presented as fluorescence change (ΔF/F) following background subtraction.
Nefiracetam and PHA 543613 increase activity in MECP2-mosaic neurospheres. Because MECP2 resides on the X chromosome, random X-inactivation in females can produce a genetic pattern of mosaicism, with consequent phenotypic gradation, in which some cells express the normal allele while others are mutant. Therefore, as the next stage to evaluate the two drug candidates, a neurosphere model of MECP2 mosaicism was developed to mimic the female RTT brain by combining different proportions of control and MECP2-KO NPCs (see FIG. 7A-C). […] Calcium transient frequency in MECP2-mosaic neurospheres was increased by treatment with Nefiracetam in isolation (1 μM, P<0.05) and when combined with PHA 543613 (10 μM, P<0.001; FIG. 7H), but calcium transient amplitude was unaffected by either compound (P=0.255; FIG. 7I). To investigate the impact of the drug treatments on the electrophysiological properties of the MECP2-mosaic model, neurospheres treated with 1 μM Nefiracetam, 1 μM PHA 543613, or both Nefiracetam and PHA 543613 were plated to perform MEA analysis. […]

SMILES | spine density / neuronal spine-like protrusions (MECP2-KO neurons) | diameter of MECP2-KO organoids [1] | effect on controls (control neurons) | calcium transient frequency ([2]; 1 μM, in isolation, P<0.05 vs CTR/KO untreated) | calcium transient amplitude [2]
Cc1cccc(C)c1NC(=O)CN1CCCC1=O [Nefiracetam, nefiracetam] | rescued or partially rescued | increased | leaving controls unaffected | increased | unaffected
O=C(N[C@H]1CN2CCC1CC2)c1cc2ccoc2cn1 [PHA 543613, N-[(3R)-1-azabicyclo[2.2.2]oct-3-yl]furo[2,3-c]pyridine-5-carboxamide] | rescued or partially rescued | increased | leaving controls unaffected |  | unaffected
